Test results taken from ChEMBL document CHEMBL1201862, “PubChem BioAssay data set” (2004).
The source made the active and inactive calls.

Assays:
BJ [1] = test: cytotoxicity toward BJ-TERT fibroblasts, dose response, cell-based, RAS-independent, luminescence (AID 1933); format: functional; settings: Homo sapiens
[2] = molecular target: T1, Heat shock factor protein 1 (Mus musculus, UniProt P38532); test: inhibition of MG132-induced HSE-luciferase signal, confirmation, cell-based, NIH3T3, luminescence, dose retest (AID 2382); format: functional;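 note: NIH3T3 fibroblasts with HSF1-driven luciferase reporter stressed by proteasome inhibitor MG132; luminescence from HSF1-driven luciferase expression after 8 hours of MG132 stress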
T1 sequence (P38532 whole entry): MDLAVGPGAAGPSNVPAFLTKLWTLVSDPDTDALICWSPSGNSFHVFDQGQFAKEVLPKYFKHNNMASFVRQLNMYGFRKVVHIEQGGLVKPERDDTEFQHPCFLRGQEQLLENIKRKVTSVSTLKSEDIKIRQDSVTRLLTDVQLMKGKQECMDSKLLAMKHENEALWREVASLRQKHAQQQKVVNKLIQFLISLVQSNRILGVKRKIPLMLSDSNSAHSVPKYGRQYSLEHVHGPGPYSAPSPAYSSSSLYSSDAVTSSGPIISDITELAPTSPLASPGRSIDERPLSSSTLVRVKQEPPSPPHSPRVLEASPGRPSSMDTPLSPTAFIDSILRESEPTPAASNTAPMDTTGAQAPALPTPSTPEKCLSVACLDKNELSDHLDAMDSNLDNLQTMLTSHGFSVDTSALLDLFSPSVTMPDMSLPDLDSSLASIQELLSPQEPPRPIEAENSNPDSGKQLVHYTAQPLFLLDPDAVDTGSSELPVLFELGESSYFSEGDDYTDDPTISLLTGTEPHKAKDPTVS

BJ [3] = test: cells; format: functional, cell-based; settings: Homo sapiens
BJ [4] = test: cytotoxicity toward BJ-TERT-LT-ST fibroblasts, dose response, cell-based, RAS-independent, luminescence (AID 1935); format: functional; settings: Homo sapiens;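 note: BJ fibroblasts immortalized with TERT plus LT and ST oncogenes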
[5] = cytotoxicity toward DRD oncogenic fibroblasts, dose response, cell-based, non-viral oncogenic, luminescence (AID 1934); format: functional; settings: Homo sapiens
[6] = molecular target: T2, Microphthalmia-associated transcription factor (Homo sapiens, UniProt O75030); test: TRPM1 promoter luciferase signal decrease, dose response, MITF inhibitor project, cell-based, SK-MEL-5, cherry-picked, set 3 (AID 493073); format: functional
T2 sequence (O75030 whole entry): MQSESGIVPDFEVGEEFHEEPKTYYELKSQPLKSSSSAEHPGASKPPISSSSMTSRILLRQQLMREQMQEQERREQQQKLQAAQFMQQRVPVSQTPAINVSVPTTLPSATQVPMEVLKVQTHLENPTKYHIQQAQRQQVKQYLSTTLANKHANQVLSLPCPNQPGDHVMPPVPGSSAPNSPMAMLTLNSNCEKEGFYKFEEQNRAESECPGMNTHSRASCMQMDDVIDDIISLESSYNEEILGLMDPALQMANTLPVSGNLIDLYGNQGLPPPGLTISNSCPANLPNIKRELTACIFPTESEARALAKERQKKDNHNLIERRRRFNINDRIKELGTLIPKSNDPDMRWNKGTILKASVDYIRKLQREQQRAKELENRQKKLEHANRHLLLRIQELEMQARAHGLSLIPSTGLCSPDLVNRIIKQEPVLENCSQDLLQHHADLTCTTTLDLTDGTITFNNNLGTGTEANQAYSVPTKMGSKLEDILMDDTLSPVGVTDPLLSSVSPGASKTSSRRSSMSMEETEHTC

A-375 = test: A375 melanoma cell viability reduction, dose response, counter-screen for MITF modulator project, cherry-pick samples, set 2 (AID 540335); format: functional, cell-based; settings: Homo sapiens
[7] = HEp-2 cell cytotoxicity, dose response, cytotoxicity control for RSV inhibitor project, HTS (AID 2410); format: functional; settings: human respiratory syncytial virus
[8] = test system: Streptococcus sp. 'group A'; test: growth inhibition of control SK(-) GAS strain, dose response, counter-screen for streptokinase expression inhibitor project, luminescence, kanamycin, BacTiterGlo, confirmation (AID 1900); format: functional, organism-based
Streptococcus = test: Group A Streptococcus viability loss, dose response, counter-screen for streptokinase expression inhibitor project, luminescence, BacTiterGlo (AID 1915); format: functional, organism-based;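 note: potency for reduction of bacterial viability or growth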
CHO-K1 = test: Counterscreen for antagonists of the orexin 1 receptor (OX1R; HCRTR1): Homogeneous time resolved fluorescence (HTRF)-based cell-based dose response assay to identify antagonists of the parental CHO-K1 cell line. [Related pubchem assays (depositor defined):AID434989, AID435008, AID463079, AID485270, AID492963, AID492964, AID492965, AID493232, AID504699, AID504701]; format: functional; settings: Cricetulus griseus;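 note: potency for inhibition of ATP-stimulated IP1 production as antagonists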
[9] = Counterscreen for antagonists of the orexin 1 receptor (OX1R; HCRTR1): Fluorescence-based cell-based high throughput dose response assay to identify antagonists of the parental CHO cell line. [Related pubchem assays (depositor defined):AID434989, AID435008, AID463079, AID485270, AID492963, AID492964, AID492965, AID493232, AID504699, AID504701]; format: functional
[10] = molecular target: T3, Orexin/Hypocretin receptor type 1 (Homo sapiens, UniProt O43613); test: Homogeneous Time Resolved Fluorescence (HTRF)-based cell-based high throughput dose response assay for antagonists of the orexin 1 receptor (OX1R; HCRTR1). [Related pubchem assays (depositor defined):AID434989, AID435008, AID463079, AID485270, AID492963, AID492964, AID492965, AID493232, AID504717, AID504718]; format: functional
T3 sequence (O43613 whole entry): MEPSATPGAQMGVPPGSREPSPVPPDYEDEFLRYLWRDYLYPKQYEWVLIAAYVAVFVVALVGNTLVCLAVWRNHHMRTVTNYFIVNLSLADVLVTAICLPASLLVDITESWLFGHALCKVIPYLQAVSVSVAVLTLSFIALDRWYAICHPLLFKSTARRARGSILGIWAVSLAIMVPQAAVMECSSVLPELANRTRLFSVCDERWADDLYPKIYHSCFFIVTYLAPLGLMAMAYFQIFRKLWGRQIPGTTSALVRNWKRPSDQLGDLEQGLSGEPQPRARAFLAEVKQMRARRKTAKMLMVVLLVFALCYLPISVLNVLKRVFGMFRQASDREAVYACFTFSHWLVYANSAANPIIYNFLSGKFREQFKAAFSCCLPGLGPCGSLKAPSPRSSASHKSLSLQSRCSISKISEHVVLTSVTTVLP

[11] = molecular target: T3, Orexin/Hypocretin receptor type 1; test: Fluorescence-based cell-based high throughput dose response assay for antagonists of the orexin 1 receptor (OX1R; HCRTR1). [Related pubchem assays (depositor defined):AID434989, AID435008, AID463079, AID485270, AID492963, AID492964, AID492965, AID493232, AID504717, AID504718]; format: functional
Cytochrome P450 3A4 = Cytochrome P450 3A4 (Homo sapiens, UniProt P08684);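 note: CYP3A4 tested as one member of a cytochrome P450 panel screen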
Sequence of Cytochrome P450 3A4 (P08684 whole entry): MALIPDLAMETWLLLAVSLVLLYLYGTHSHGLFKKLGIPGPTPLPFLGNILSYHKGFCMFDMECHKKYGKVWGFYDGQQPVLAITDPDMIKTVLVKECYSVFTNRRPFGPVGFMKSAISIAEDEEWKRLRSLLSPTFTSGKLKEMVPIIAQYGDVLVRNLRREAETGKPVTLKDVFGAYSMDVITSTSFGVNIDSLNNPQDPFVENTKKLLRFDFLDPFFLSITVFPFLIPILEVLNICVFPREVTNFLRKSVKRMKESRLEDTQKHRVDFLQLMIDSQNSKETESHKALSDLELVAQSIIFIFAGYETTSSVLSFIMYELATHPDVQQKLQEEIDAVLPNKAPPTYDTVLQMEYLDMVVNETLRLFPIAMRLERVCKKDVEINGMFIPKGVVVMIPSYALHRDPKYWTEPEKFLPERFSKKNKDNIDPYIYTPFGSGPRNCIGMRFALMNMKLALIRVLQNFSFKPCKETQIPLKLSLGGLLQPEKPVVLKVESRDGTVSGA

Beta-lactamase [12] = molecular target: Beta-lactamase (Salmonella choleraesuis (strain SC-B67), UniProt Q5J463); test: Epi-absorbance-based counterscreen for selective VIM-2 inhibitors: dose response biochemical high throughput screening assay to identify inhibitors of TEM-1 serine-beta-lactamase.
Sequence of Beta-lactamase (Salmonella choleraesuis (strain SC-B67), UniProt Q5J463) (Q5J463 whole entry): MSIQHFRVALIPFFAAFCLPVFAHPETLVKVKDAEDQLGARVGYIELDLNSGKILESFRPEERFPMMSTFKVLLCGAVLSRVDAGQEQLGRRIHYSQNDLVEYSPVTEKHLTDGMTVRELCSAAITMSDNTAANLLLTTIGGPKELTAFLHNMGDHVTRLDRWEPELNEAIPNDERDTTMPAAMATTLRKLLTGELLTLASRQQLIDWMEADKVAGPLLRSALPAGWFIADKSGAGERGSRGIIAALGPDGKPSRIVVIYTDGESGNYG

Beta-lactamase [13] = molecular target: T4, Beta-lactamase (Pseudomonas aeruginosa, UniProt Q79MP6); test: IMP-1 metallo-beta-lactamase inhibitors, dose response, selectivity assay for VIM-2 inhibitor project, biochemical, epi-absorbance (AID 1920)
T4 sequence (Q79MP6 whole entry): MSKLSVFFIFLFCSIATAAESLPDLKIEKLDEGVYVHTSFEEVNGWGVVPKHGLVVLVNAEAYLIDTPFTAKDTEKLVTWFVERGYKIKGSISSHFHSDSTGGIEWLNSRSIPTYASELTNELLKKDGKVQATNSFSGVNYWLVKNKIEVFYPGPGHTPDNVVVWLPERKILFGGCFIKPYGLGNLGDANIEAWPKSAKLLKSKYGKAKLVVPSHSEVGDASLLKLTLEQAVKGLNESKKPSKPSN

Beta-lactamase [14] = molecular target: T4, Beta-lactamase; test: […] counterscreen for selective VIM-2 inhibitors: dose response biochemical high throughput screening assay to identify inhibitors of IMP-1 metallo-beta-lactamase.
[15] = molecular target: DNA dC->dU-editing enzyme APOBEC-3A (Homo sapiens, UniProt P31941); test: APOBEC3A DNA deaminase inhibitors, dose response, biochemical (AID 504722); format: functional
Sequence of DNA dC->dU-editing enzyme APOBEC-3A (P31941 whole entry): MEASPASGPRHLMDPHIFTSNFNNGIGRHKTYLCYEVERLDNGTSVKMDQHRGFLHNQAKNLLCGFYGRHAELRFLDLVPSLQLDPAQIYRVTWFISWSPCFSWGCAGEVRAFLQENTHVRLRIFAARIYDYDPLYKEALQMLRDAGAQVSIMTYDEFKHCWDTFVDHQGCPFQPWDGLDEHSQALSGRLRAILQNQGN

[16] = molecular target: DNA dC->dU-editing enzyme APOBEC-3G (Homo sapiens, UniProt Q9HC16); test: Dose Response confirmation of small molecule APOBEC3G DNA Deaminase Inhibitors via a fluorescence-based single-stranded DNA deaminase assay. [Related pubchem assays (depositor defined):AID493012, AID493028]; format: functional
Sequence of DNA dC->dU-editing enzyme APOBEC-3G (Q9HC16 whole entry): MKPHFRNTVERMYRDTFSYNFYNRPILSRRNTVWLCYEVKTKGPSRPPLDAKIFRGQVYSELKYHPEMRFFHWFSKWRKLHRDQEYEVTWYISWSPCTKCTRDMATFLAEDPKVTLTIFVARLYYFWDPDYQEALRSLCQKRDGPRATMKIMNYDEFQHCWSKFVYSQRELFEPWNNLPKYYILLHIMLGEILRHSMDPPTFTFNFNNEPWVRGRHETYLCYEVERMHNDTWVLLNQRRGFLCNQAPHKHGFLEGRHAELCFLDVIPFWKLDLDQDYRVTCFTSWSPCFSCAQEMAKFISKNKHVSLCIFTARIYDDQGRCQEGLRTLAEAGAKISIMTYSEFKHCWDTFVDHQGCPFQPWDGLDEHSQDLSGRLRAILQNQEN

[17] = molecular target: FAD-linked sulfhydryl oxidase ALR (Homo sapiens, UniProt P55789); test: inhibitors of human ALR sulfhydryl oxidase, dose response, biochemical, H2O2 detection, luminescence, cherry-pick (AID 493248)
Sequence of FAD-linked sulfhydryl oxidase ALR (P55789 whole entry): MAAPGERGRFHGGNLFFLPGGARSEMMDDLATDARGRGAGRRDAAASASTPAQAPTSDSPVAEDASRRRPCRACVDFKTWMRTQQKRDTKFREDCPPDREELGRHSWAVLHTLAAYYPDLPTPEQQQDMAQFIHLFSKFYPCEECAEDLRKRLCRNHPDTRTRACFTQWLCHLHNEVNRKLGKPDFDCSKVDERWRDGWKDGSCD

[18] = molecular target: T5, G-protein coupled receptor 55 (Homo sapiens, UniProt Q9Y2T6); test: GPR55 antagonists blocking LPI-driven arrestin recruitment, primary screen, imaging, U2OS, beta-arrestin-GFP, LPI agonist (AID 2013); format: functional;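 note: antagonist potency measured as reduced agonist-driven arrestin aggregation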
T5 sequence (Q9Y2T6 whole entry): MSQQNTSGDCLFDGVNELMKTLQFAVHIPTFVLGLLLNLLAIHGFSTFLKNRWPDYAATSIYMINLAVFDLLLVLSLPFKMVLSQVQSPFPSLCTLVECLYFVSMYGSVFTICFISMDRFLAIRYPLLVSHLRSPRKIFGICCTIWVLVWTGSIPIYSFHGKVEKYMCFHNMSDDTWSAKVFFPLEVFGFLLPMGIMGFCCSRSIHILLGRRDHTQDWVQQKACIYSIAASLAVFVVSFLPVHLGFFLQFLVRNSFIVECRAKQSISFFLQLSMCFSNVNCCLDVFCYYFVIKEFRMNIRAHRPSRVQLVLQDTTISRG

Cannabinoid receptor 2 [19] = molecular target: T6, Cannabinoid receptor 2 (Homo sapiens, UniProt P34972); test: SAR analysis of antagonists of the Cannabinoid Receptor 2 using an Image-Based Assay - Set 2. [Related pubchem assays (depositor defined):AID1961, AID1965]; format: functional
T6 sequence (P34972 whole entry): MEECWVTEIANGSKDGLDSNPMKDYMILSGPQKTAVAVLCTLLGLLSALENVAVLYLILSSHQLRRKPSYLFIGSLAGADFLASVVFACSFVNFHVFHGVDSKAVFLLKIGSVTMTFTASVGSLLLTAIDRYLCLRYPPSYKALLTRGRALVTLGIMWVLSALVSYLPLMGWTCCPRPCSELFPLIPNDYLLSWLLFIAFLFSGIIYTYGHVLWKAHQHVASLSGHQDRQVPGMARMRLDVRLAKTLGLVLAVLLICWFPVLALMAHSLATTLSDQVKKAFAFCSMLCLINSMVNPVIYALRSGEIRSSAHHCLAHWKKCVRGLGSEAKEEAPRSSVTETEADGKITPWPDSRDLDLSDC

Cannabinoid receptor 2 [20] = molecular target: T6, Cannabinoid receptor 2; test: SAR analysis of agonists of the Cannabinoid Receptor 2 using an Image-Based Assay - Set 2. [Related pubchem assays (depositor defined):AID1961, AID1965]; format: functional
[21] = molecular target: T5, G-protein coupled receptor 55; test: SAR analysis of selective Agonists of GPR55 using an Image-Based Assay. [Related pubchem assays (depositor defined):AID1961, AID1965]; format: functional
Cannabinoid receptor 1 = Cannabinoid receptor 1 (Homo sapiens, UniProt P21554); test: SAR analysis of antagonists of the Cannabinoid Receptor 1 using an Image-Based Assay. [Related pubchem assays (depositor defined):AID1961, AID1965]; format: functional
Sequence of Cannabinoid receptor 1 (P21554 whole entry): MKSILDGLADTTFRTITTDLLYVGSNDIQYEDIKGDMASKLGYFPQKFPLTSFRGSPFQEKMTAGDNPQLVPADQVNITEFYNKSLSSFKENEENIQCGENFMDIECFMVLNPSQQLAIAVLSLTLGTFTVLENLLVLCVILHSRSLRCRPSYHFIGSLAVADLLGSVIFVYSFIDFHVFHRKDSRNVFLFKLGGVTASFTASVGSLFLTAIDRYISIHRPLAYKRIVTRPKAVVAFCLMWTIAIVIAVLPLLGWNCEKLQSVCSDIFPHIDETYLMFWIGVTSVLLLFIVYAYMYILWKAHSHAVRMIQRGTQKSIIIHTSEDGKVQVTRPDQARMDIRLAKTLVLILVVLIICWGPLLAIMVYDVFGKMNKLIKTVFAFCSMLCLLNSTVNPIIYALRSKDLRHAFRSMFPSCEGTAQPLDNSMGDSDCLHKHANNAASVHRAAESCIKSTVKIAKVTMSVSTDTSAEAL

[22] = Luminescence Cell-Based Dose Retest to Confirm Inhibitors of Cancer Stem Cells. [Related pubchem assays (depositor defined):AID2717, AID2721]; format: functional; settings: Homo sapiens
[23] = molecular target: Glyceraldehyde-3-phosphate dehydrogenase (Homo sapiens, UniProt P04406)
Sequence of Glyceraldehyde-3-phosphate dehydrogenase (P04406 whole entry): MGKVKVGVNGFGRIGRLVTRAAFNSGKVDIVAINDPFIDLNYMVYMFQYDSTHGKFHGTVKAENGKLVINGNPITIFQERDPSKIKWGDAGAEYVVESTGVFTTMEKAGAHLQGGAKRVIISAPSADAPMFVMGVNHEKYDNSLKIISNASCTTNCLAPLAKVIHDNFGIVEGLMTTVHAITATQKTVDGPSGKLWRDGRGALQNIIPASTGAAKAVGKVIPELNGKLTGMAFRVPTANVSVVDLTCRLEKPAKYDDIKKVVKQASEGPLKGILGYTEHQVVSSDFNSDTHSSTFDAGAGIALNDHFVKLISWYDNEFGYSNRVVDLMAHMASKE

[24] = molecular target: T7, Alkaline phosphatase, tissue-nonspecific isozyme (Homo sapiens, UniProt P05186); test: human TNAP enzyme inhibitors, SAR follow-up, biochemical, luminescent, dose response (AID 1056)
T7 sequence (P05186 whole entry): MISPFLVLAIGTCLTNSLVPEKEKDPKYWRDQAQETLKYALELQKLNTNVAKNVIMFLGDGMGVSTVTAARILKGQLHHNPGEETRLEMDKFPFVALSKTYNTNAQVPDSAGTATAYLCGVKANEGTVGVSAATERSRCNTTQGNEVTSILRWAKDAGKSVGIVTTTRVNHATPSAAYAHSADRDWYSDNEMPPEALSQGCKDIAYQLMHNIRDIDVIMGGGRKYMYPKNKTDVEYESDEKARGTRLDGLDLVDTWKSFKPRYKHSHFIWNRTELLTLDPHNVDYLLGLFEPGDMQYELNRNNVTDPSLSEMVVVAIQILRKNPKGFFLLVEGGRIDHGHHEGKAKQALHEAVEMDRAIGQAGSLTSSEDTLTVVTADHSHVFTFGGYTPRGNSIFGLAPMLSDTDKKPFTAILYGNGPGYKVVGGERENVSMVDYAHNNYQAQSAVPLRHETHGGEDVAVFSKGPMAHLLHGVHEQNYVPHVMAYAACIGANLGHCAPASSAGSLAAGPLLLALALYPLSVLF

[25] = molecular target: T5, G-protein coupled receptor 55; test: GPR55 agonists via beta-arrestin recruitment, primary screen, imaging, U2OS cells, beta-arrestin-GFP redistribution (AID 1961); format: functional
Troponin, cardiac muscle = Troponin, cardiac muscle (Homo sapiens, UniProt P19429+P45379+P63316); test: Fluorescence-based biochemical high throughput dose response assay for activators of the calcium sensitivity of cardiac Regulated Thin Filaments (RTF). [Related pubchem assays (depositor defined):AID493008, AID493018, AID504382, AID504383]; format: protein-complex assay

CCCCN1C=CC(=C2C(=O)c3ccccc3C2=O)C=C1
EC50 (BJ [1]): 6.03 µM (active) | EC50 [2]: 0.356 µM (active) | EC50 (BJ [3]): 7.56 µM (active) | EC50 (BJ [4]): > 150 µM (inconclusive) | EC50 [5]: 7.63 µM (active) | AC50 [6]: 0.921 µM (active) | AC50 (A-375): 20.6 µM (active)

O=C(O)c1ccc(N2C(=O)CC(SC(=NCc3ccc4c(c3)OCO4)Nc3ccc(F)cc3)C2=O)cc1 (centres undefined)
CC50 [7]: 32.4 µM (active) | EC50 [8]: 4.89 µM (active) | EC50 (Streptococcus): 29 µM (active) | IC50 (CHO-K1): > 66.2 µM (inactive) | IC50 [9]: 23.2 µM (inactive) | IC50 [10]: 24.5 µM (inactive) | IC50 [11]: 14.3 µM (inactive) | IC50 (cells): 23.9 µM (active)

COC(=O)N1CCC2(CCN(Cc3nccs3)CC2)CC1
AC50 (Cytochrome P450 3A4): inconclusive

S=c1[nH]nc(-c2ccco2)n1Cc1ccccc1
IC50 (Beta-lactamase [12]): > 59.6 µM (inactive) | IC50 (Beta-lactamase [13]): > 59.6 µM (inactive) | IC50 (Beta-lactamase [14]): > 59.6 µM (inactive) | IC50 [15]: > 100 µM (inactive) | IC50 [16]: 2.89 µM (active) | AC50 [17]: 7.95 µM (active)

Cc1nn(C(C)(C)C)c(OC(=O)c2cccs2)c1Sc1ccccc1
IC50 [18]: 5.36 µM (active)

COc1ccc2c(c1)cc(C)c1nnc(SCC(=O)N(C)c3nc(-c4ccccc4)cs3)n12
IC50 (Cannabinoid receptor 2 [19]): > 32 µM (inactive) | EC50 (Cannabinoid receptor 2 [20]): > 32 µM (inactive) | EC50 [21]: > 32 µM (inactive) | IC50 (Cannabinoid receptor 1): > 32 µM (inactive)

O=c1c2ccccc2nc2n1C1(CCCCC1)Cc1ccccc1-2
IC50 [18]: 2.41 µM (active) | AC50 [22]: 2.06 µM (active)

Cc1cc(C)c(S(=O)(=O)Nc2ccc3ccccc3c2)c(C)c1
IC50 [23]: > 100 µM (not active) | IC50 [24]: > 100 µM (inactive)

COc1ccc2cc(C)c3nnc(SCC(=O)Nc4nc(-c5ccc(F)cc5)cs4)n3c2c1
EC50 [25]: < 0.5 µM (active) | IC50 (Cannabinoid receptor 2 [19]): > 32 µM (inactive) | EC50 (Cannabinoid receptor 2 [20]): > 32 µM (inactive) | EC50 [21]: 0.164 µM (active) | IC50 (Cannabinoid receptor 1): > 32 µM (inactive)

CCOc1cc(C)c(C(C)C)cc1S(=O)(=O)Nc1cccnc1
IC50 [24]: 18.9 µM (active)

Cc1ccc(C(=O)c2c[nH]c(C(=O)NCCCN3CCOCC3)c2)cc1
AC50 (Cytochrome P450 3A4): inconclusive

Cc1nnc(N/N=C/c2ccc(O)c([N+](=O)[O-])c2)nc1O
EC50 (Troponin, cardiac muscle): > 71.5 µM (inactive)
